Data from US12037344B2, “NLRP3 modulators” (INNATE TUMOR IMMUNITY, INC., priority 2018, dated 2024).
Like-named read-outs stand apart in the source and are kept apart here.

Experiments:
TLR7 = biological target: T1, TLR7 (Homo sapiens, UniProt Q9NYK1); experiment: In vitro human TLR7 binding reporter assay (HEK-Blue, NF-kB/AP1-inducible SEAP); assay type: cell-based; conditions: activity range class, read-out: TLR7 Agonist EC50
T1 construct: human HEK-Blue cells co-expressing a TLR7 or TLR8 gene
T1 sequence (Q9NYK1 27-1049): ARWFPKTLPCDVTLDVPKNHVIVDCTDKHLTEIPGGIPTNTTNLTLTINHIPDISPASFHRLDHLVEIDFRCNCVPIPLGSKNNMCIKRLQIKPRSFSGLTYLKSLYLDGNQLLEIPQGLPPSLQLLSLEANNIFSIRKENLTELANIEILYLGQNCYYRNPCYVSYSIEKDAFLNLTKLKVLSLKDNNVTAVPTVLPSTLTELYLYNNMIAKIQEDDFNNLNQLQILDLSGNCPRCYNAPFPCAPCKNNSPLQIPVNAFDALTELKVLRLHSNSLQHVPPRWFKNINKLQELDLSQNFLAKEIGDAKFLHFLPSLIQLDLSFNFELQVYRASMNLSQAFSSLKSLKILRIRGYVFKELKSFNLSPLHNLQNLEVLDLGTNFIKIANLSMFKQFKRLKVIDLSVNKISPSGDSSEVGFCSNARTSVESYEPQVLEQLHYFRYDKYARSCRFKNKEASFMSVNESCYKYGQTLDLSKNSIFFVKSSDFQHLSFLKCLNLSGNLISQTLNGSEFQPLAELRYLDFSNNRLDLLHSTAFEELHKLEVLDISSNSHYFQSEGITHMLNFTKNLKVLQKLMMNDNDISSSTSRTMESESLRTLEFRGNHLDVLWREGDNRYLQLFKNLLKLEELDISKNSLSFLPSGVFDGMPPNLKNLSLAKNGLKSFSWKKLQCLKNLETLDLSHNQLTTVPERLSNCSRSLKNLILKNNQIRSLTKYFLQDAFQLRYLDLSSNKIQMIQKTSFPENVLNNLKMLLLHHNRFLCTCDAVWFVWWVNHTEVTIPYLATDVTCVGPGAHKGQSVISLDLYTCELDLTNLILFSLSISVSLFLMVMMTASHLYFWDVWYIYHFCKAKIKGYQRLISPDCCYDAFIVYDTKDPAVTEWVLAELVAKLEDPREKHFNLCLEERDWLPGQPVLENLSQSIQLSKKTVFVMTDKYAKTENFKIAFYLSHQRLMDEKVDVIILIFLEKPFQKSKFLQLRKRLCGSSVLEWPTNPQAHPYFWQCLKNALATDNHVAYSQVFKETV
How it was run: (§1)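 Cells are seeded and grown for 24 h. Compounds or DMSO are then added and incubated 18 h at 37 °C. Quanti-Blue is added, and SEAP is read after thirty minutes. EC50 values are normalized, with RLU from 50 μM reference standard setting 100% Ymax.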

TLR8 = biological target: T2, TLR8 (Homo sapiens, UniProt Q9NR97); experiment: In vitro human TLR8 binding reporter assay (HEK-Blue, NF-kB/AP1-inducible SEAP); assay type: cell-based; conditions: activity range class, read-out: TLR8 Agonist EC50
T2 construct: human HEK-Blue cells co-expressing a TLR7 or TLR8 gene
T2 sequence (Q9NR97 27-1041): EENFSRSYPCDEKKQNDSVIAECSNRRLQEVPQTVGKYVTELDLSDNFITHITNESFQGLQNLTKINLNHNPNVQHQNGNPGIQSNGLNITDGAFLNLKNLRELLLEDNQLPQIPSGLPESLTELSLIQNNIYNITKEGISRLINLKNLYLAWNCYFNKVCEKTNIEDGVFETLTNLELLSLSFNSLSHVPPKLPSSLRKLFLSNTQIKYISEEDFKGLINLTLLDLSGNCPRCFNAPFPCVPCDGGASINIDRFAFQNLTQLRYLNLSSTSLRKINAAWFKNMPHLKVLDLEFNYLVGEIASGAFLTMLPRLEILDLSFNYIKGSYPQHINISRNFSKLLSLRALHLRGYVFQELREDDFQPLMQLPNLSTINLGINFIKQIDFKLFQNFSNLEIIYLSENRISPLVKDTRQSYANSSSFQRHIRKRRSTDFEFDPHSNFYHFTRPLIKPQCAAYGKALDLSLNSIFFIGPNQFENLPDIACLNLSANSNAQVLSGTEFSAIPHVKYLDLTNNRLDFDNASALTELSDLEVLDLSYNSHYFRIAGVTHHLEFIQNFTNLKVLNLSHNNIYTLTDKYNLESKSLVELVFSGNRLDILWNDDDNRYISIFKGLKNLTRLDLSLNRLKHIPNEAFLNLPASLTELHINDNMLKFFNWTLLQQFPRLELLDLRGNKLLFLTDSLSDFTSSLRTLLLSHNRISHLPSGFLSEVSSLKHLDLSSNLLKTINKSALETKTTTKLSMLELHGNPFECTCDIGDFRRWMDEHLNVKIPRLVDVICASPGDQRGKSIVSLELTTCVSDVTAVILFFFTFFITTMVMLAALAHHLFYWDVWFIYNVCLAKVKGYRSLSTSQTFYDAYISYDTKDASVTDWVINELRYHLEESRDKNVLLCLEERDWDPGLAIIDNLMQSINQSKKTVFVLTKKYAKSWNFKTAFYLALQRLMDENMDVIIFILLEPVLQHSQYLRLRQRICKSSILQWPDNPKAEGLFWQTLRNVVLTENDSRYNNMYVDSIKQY
How it was run: as §1

THP-1 cells = experiment: Measurement of IL-1β production, hTRF protocol (second alternative procedure), THP-1 cells; assay type: cell-based, human; conditions: Homo sapiens
How it was run: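 THP-1 cells differentiated overnight with 50 ng/ml PMA, then plated at 50,000 cells/well in RPMI with 2% FBS onto serial compound dilutions (top final concentration 10 μM) for 2 hours at 37° C. Supernatant IL-1β measured by hTRF (antibodies at 1:40, overnight at 4° C), read at 665/615 nm against a standard curve.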

[1] = THP-1, IL-1β production, human, read-out: NLRP3 hILIB EC50

EC50 (TLR7) [µM] | EC50 (TLR8) [µM] | EC50 (THP-1 cells; [1]) [µM] | SMILES | EC50 (THP-1 cells; THP-1, read-out: NLRP3 hILIB EC50) [µM]
> 100 | > 100 | 1.87 | C[C@H](CO)Cn1ncc2c(N)nc3cc(-c4cc[nH]n4)ccc3c21 [Example 232] | 
> 100 | > 100 | 0.56 | Nc1nc2cc(-c3cc[nH]n3)ccc2c2nn(CC(O)CO)cc12 (stereo not drawn) [Example 234] | 
> 100 | > 100 | 12.5 | Nc1nc2cc(-c3cc[nH]n3)ccc2c2c1cnn2CC(O)CO (stereo not drawn) [Example 235] | 
> 100 | > 100 | 0.79 | Nc1nc2cc(-c3cc[nH]n3)ccc2c2nn(C3CCOCC3)cc12 [Example 236] | 
> 100 | > 100 | 0.62 | Nc1nc2cc(-c3cc[nH]n3)ccc2c2c1cnn2C1CCOC1 (stereo not drawn) [Example 240] | 
> 100 | > 100 | 0.46 | Nc1nc2cc(-c3cc[nH]n3)ccc2c2nn(C3COC3)cc12 [Example 241] | 
> 100 | > 100 | 1.8 | Cc1nnc(Cn2ncc3c(N)nc4cc(-c5cc[nH]n5)ccc4c32)o1 [Example 244] | 
> 100 | > 100 | 0.94 | Nc1nc2cc(-c3cc[nH]n3)ccc2c2nn(CC(O)C(F)(F)F)cc12 (stereo not drawn) [Example 245] | 
> 100 | > 100 | 0.62 | Nc1nc2cc(-n3cccn3)ccc2c2nn(CCCO)cc12 [Example 251, 3-(4-amino-7-(1H-pyrazol-1-yl)-2H-pyrazolo[4,3-c]quinolin-2-yl)propan-1-ol] | 
> 100 | > 100 | 1.13 | Nc1nc2cc(-n3cccn3)ccc2c2c1cnn2CCCO [Example 252, 3-(4-amino-7-(1H-pyrazol-1-yl)-1H-pyrazolo[4,3-c]quinolin-1-yl)propan-1-ol] | 
> 100 | > 100 | 20.3 | CC(=O)NC(C)Cn1cc2c(N)nc3cc(-c4ccn[nH]4)ccc3c2n1 (stereo not drawn) [Example 254] | 

More lines, now with the values behind:

SMILES | EC50 (TLR7) [µM] | EC50 (TLR8) [µM] | EC50 (THP-1 cells; [1]) [µM] | EC50 (THP-1 cells; THP-1, read-out: NLRP3 hILIB EC50) [µM]
CN1CCOC(Cn2ncc3c(N)nc4cc(-c5cc[nH]n5)ccc4c32)C1 (stereo not drawn) [Example 231] | > 100 | > 100 | 1.21 | 
Nc1nc2cc(-c3cc[nH]n3)ccc2c2c1cnn2CCOCCO [Example 233] | > 100 | > 100 | 1.44 | 
Nc1nc2cc(-c3cc[nH]n3)ccc2c2c1cnn2C1COC1 [Example 242] | > 100 | > 100 | 0.68 | 
Cc1nnc(Cn2cc3c(N)nc4cc(-c5cc[nH]n5)ccc4c3n2)o1 [Example 243] | > 100 | > 100 | 1.39 | 
COC1CCC(n2cc3c(N)nc4cc(-c5cc[nH]n5)ccc4c3n2)C1 (stereo not drawn) [Example 246] | > 100 | > 100 | 0.58 | 
COCCn1cc2c(N)nc3cc(-n4cccn4)ccc3c2n1 [Example 247, 2-(2-methoxyethyl)-7-(1H-pyrazol-1-yl)-2H-pyrazolo[4,3-c]quinolin-4-amine] | > 100 | > 100 | 0.44 | 
COCCn1cc2c(N)nc3cc(-c4cccs4)ccc3c2n1 [Example 248, 2-(2-methoxyethyl)-7-(thiophen-2-yl)-2H-pyrazolo[4,3-c]quinolin-4-amine] | > 100 | > 100 | 0.65 | 
Nc1nc2cc(-n3cccn3)ccc2c2nn(CCO)cc12 [Example 249, 2-(4-amino-7-(1H-pyrazol-1-yl)-2H-pyrazolo[4,3-c]quinolin-2-yl)ethan-1-ol] | > 100 | > 100 | 0.64 | 
Nc1nc2cc(-n3cccn3)ccc2c2c1cnn2CCO [Example 250, 2-(4-amino-7-(1H-pyrazol-1-yl)-1H-pyrazolo[4,3-c]quinolin-1-yl)ethan-1-ol] | > 100 | > 100 | 1.95 | 
CC(CO)n1cc2c(N)nc3cc(-c4ccn[nH]4)ccc3c2n1 (stereo not drawn) [Example 253, 2-[4-amino-7-(1H-pyrazol-5-yl)-2H-pyrazolo[4,3-c]quinolin-2-yl]propan-1-ol] | > 100 | > 100 |  | 0.3
